Where two headings read alike, the source gives them in different places.
Legend:
[1] = system: dsDNA (double stranded control sequence); test: FRET melting assay, duplex control; assay type: binding; conditions: 50:1
Experimental: (§1) To evaluate stabilizing properties of the ligands in a complex with oligodeoxyribonucleotides (ODNs) melting with fluorescence registration was used. ODN (0.5 μM) (Table 1), labeled with 6-carboxyfluorescein (FAM) and 6-carboxytetramethylrhodamine (TAMRA) at the 5′- and 3′-end, respectively, were folded in lithium cacodylate buffer (10 mM, pH 7.4) with 100 mM KCl by heating at 95 °C for 5 min and gradually cooling to r.t. GFP chromophore analogs (5 mM solution in DMSO) were diluted with the same buffer to the final concentration of 25 μM and mixed with an equal volume of 0.5 μM ODN solution resulting in a molar ratio of 50:1 (total volume was 50 μL). For the titration experiments molar ratios of 20:1 and 2:1 were used. Samples were analyzed using DTprime qPCR system (DNA-Technology LLC, Moscow, Russia). Fluorescence was registered by detection of FAM emission at 520 nm upon excitation at 495 nm in the temperature range of 30–95 °C with 1 °C/min gradient. Tm was determined using the instrument software and ΔTm was calculated relative to ODN Tm in a buffer solution containing 0.25% (v/v) DMSO. The primary and secondary screening were carried out in singlicate and triplicate, respectively.
(§2) Initially we screened an in-house library of 440 synthetic GFP chromophore analogues for interaction with HIV-1 LTR-III sequence, which modulates HIV-1 promoter activity, using high-throughput screening (HTS) FRET melting assay (Table S1). […] We selected 11 compounds (Figure 2A), displaying stabilization in the range of 2.4–7.8 °C, and evaluated their ability to stabilize other G4-forming sequences, including human telomeric sequence Telo (one of the most common G4 structures in the human genome, having two conformations, Hybrid-1 and Hybrid-2 [36]) and model G4 […] (the G-rich Pu39 region of the P1 promoter of the oncogene BCL-2, an apoptosis regulator [37] with polymorphic conformational structure), as well as double stranded oligonucleotide (duplex) control sequence (Figure 2B, Table S2).

[2] = system: Pu39 G4 (G-rich region of the P1 promoter of BCL-2); test: FRET melting assay, Pu39; assay type: binding, human; conditions: 50:1
Experimental: as §1, §2

[3] = Cytotoxicity test; assay type: cell-based; conditions: human, MT4 cells (human T cell leukemia), Figure 7
Experimental: (§3) Green monkey kidney (Vero, Beach, FL, USA) cell line was maintained in 2 × Eagle MEM (“Chumakov FSC R&D IBP RAS”, Russia) with 5% FBS with L-glutamine, penicillin and streptomycin. […] HIV-1 strain NL4-3 was obtained via cell transfection with pNL4-3 3 (ARP2006, NIBSC, Potters Bar, UK).
(§4) MT4 cell suspensions were added to the wells with compound dilutions and DMSO control (approx. 2 × 10^4 cells per well). […] All experimental procedures were performed in two replicates and were repeated two to four times. Mean and SD were calculated with OriginPro 8 (OriginLab, St. Louis, MO, USA).

[4] = system: MT4 cells; test: Cytotoxicity test; assay type: cell-based; conditions: Table S12, nine days
Experimental: as §3, §4

[5] = system: human telomeric sequence Telo G4; test: FRET melting assay, Telo; assay type: binding; conditions: 50:1
Experimental: as §1, §2

[6] = system: HIV-1 LTR-III G-quadruplex (FAM/TAMRA-labeled LTR-III); test: FRET melting assay, LTR-III G4; assay type: binding; conditions: for LTR III stabilization: Figure 7, stabilization group; for LTR-III (average): Table S12, average stabilization
How it was run: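 Melting is followed by FAM fluorescence (ex 495/em 520 nm) while heating at 1 °C/min from 30 to 95 °C. Labelled ODN at 0.5 μM, pre-annealed in 10 mM Li cacodylate, 100 mM KCl, pH 7.4, mixed with ligand at 50:1 (25 μM), or 20:1 and 2:1 for titration. ΔTm is relative to the 0.25% DMSO buffer control.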

[7] = system: HIV-1 strain NL4-3 in MT4 cells; test: Cytopathic effect inhibition test; assay type: cell-based; conditions: HIV-1 NL4-3, MT4 cells
Experimental: Human T cell leukemia (MT4) cell line was maintained in RPMI-1640 (“Chumakov FSC R&D IBP RAS”, Moscow, Russia) with 10% of fetal bovine serum (FBS, Invitrogen, Waltham, MA, USA), L-glutamine and gentamicin. Green monkey kidney (Vero, Beach, FL, USA) cell line was maintained in 2 × Eagle MEM (“Chumakov FSC R&D IBP RAS”, Russia) with 5% FBS with L-glutamine, penicillin and streptomycin. Cell cultures were incubated in the present of 5% CO2 at 37 °C. HIV-1 strain NL4-3 was obtained via cell transfection with pNL4-3 3 (ARP2006, NIBSC, Potters Bar, UK).
Eight two-fold dilutions of stock solutions of the compounds in two replicates were prepared in RPMI-1640 (“Chumakov FSC R&D IBP RAS”, Russia). Compound dilutions were mixed with equal volumes of the virus suspension containing 100 CCID50 (50% tissue culture infectious dose). Control cells were treated with the same sequential concentrations of DMSO as in compound dilutions. Then, the MT4 cell suspension (approx. 2 × 10^4 cells per well) in RPMI-1640 containing 10% FBS (Invitrogen, South America) was added to experimental mixtures. A final concentration series started from 25 μM. Each experiment contained virus dose titration in the inoculate to assure the acceptable dose-range. After a nine-day incubation (5% CO2, at 37 °C), cytopathic effect (CPE) was visually accessed via microscope. EC50 values were calculated according to the Karber method. All experimental procedures were performed in two replicates and were repeated two to four times. Mean and SD were calculated with OriginPro 8 (OriginLab, St. Louis, MO, USA).

[8] = Table S5, newly synthesized compounds
[9] = LTR-III G4/ligand molar ratio 1:20
[10] = LTR-III G4/ligand molar ratio 1:50
[11] = Table S3 primary screening of newly synthesized analogs, 50:1
[12] = Table S2, primary screening lead compounds
[13] = Table S1 primary screening, ligand:ODN 50:1, singlicate
[14] = Human immunodeficiency virus 1, NL43, 216 h, Table S12, CPE, nine-day incubation, read-out: EC50
[15] = Human immunodeficiency virus 1, NL43, Figure 7, read-out: Antiviral activity EC50 (HIV)

Row | Structure (SMILES) | ΔTm Duplex [1, 8] [°C] | ΔTm Pu39 [2, 8] [°C] | CC50 at 9 days [3] [nM] | СС50 (MT4) [4] [µM] | ΔTm Telo [5, 8] [°C] | LTR III stabilization [6] [°C] | ΔTm, titration ([6]; LTR-III G4/ligand molar ratio 1:2) [°C] | ΔTm, titration [6, 9] [°C] | ΔTm, titration [6, 10] [°C] | LTR-III ΔTm [6, 11] [°C] | LTR-III (average) [6] | ΔTm Duplex [1, 12] [°C] | ΔTm Pu39 [2, 12] [°C] | ΔTm Telo [5, 12] [°C] | LTR-III ΔTm [6, 13] [°C] | EC50 [7, 14] [nM] | EC50 [7, 15] [nM] | EC50 ([7]; Table S12, CPE, nine-day incubation)
1 | COc1cc(/C=C2N=C(/C=C/c3cc(OC)c(O)c(OC)c3)N(C)C\2=O)cc(OC)c1O [N1193] | 0.6±0.1 | 3.8±0.04 | 2000 ± 1000 | 2.3 ± 1.1 | 9.5±0.1 | > 3 | 2.4±0.6 | 9.1±0.6 | 13.1±0.2 | 14 | 14 °C | – | – | – | – | – | – | –
2 | COc1cc(/C=C2N=C(/C=C/c3ccnc4ccccc34)N(C)C\2=O)cc(OC)c1O [N1196] | 0.5±0.1 | 7.2±0.4 | > 25000 | > 25 | 8.7±0.2 | > 3 | – | 7.9±0.4 | 11.3±0.3 | 11.7 | – | – | – | – | – | – | – | –
3 | CN1C(=O)/C(=C/c2cc[n+](C)cc2)N=C1c1ccccc1 [M 903.2] | – | – | > 25000 | > 25 | – | – | – | – | – | – | 2,3 °C | 0.1±0.07 | -1±0.5 | 0.4±0.1 | 2.8 | – | – | –
4 | COc1ccc(/C=C2\N=C(CC(C)C)C(=O)N(O)C2=O)cc1 [M 813] | – | – | 500 ± 200 | 0.46 ± 0.16 | – | – | – | – | – | – | 1,65 °C | 0±0.04 | -1.5±1 | -0.6±0.9 | 2.9 | – | – | –
5 | COc1c(O)ccc(/C=C2N=C(/C=C/c3ccncc3)N(C)C\2=O)c1OC [N 1068.2] | – | – | 3000 ± 1000 | 3.0 ± 1.0 | – | > 3 | – | – | – | – | 6,9 °C | 0.1±0.04 | 0±0.4 | 1.2±0.2 | 7.1 | 1780 ± 380 | 1800 ± 400 | micromolar range
6 | COc1c(O)ccc(/C=C2N=C(/C=C/c3cc(Br)c(O)c(Br)c3)N(C)C\2=O)c1OC [N1199] | 0±0.1 | 0±0.2 | 5000 ± 3000 | 4.6 ± 2.5 | 0.9±0.1 | > 3 | – | – | – | 4.3 | 4,3 °C | – | – | – | – | 3300 ± 1100 | 3000 ± 1000 | –
